Source: patent publication US20140057895A1, “INDAZOLE- AND PYRROLOPYRIDINE-DERIVATIVE AND PHARMACEUTICAL USE THEREOF” (priority 2011, published 2014)
pEC50, pIC50: −log10 of the molar value. Counter-ions that a name gives are not always drawn.

How the values were obtained:
[1] = biological target: T1, human 5-HT4b receptor (Homo sapiens, UniProt Q13639); experiment: Test Example 2: Serotonin 4 (5-HT4) receptor agonist activity assay, cAMP HTRF in CHO cells (Table 97); assay type: cell-based; conditions: cAMP in CHO cells expressing human 5-HT4b receptor, mean value; for Emax: 0.25 h, intrinsic activity, maximal activity of 5-HT defined as 100%, read-out: IA (%); for pEC50: concentration showing 50% of IA
T1 construct: expressed in transfected cells; host or cells: CHO cells (G418 selection)
Experimental: The cAMP measurement test used herein was carried out by using CISBIO HTRF (trademark) cAMP Hirange kit according to the manufacturer's instructions attached therewith.
CHO cells expressing human 5-HT4b receptor were incubated in Medium 1 [DMEM/1% NEAA, 1% penicillin/streptomycin (P/S), 0.2 mg/mL GENETICIN (G418), 10% FBS] at 37° C. under 5% CO2 condition. Then, the cells were put into Medium 2 (DMEM/10000 cut FBS, G-418, P/S, NEAA) for 1 to 2 hours, and collected by treating with trypsin containing EDTA. The collected cells were suspended in Assay Buffer 1 [100 mM Hanks/HEPES buffer (pH 7.4)], the suspended cells were mixed with the testing compound on 384-well plates, and the cells were incubated at 31° C. for 15 minutes. To the cells were added cAMP-cryptate solution and cAMP-d2 solution, and they were incubated at room temperature for 1 hour. Then, time-resolved fluorescence was measured by En Vision (excitation wavelength: 330 nm, fluorescence wavelength: 620/665 nm). An intrinsic activity of the compound [IA (%)] and a concentration showing 50% of IA [EC50 (nM)] were calculated from the obtained results. In particular, the intrinsic activity (IA) was calculated on the basis of the maximal activity of 5-HT (measured from 10^−11 M to 10^−7 M) defined as 100%.
(§1) In the following table, the compounds used in the test are shown in numbers which correspond to the Example numbers above where the preparations of the compounds are described.

[2] = biological target: T2, 5-HT4 receptor (Cavia porcellus, UniProt O70528); experiment: Test Example 1: Serotonin 4 (5-HT4) receptor binding assay, [3H]-GR113808, guinea pig striatum membranes (Table 96); conditions: Guinea pig 5-HT4 receptor binding assay, [3H]-GR113808, striatum membranes; mean value of each group
T2 construct: striatum was isolated which was cryopreserved at −80° C. until use; from tissue; host or cells: guinea pig (Slc-Hartley) striatum membranes
Experimental: The 5-HT4 receptor binding assay and preparations of receptor membrane preparations herein were carried out according to a method of Grossman et al. [see, British J. Pharmacol., (1993) 109, 618].
Slc-Hartley guinea pigs (body weight 300 g to 400 g) were decapitated to remove brain rapidly, and striatum was isolated which was cryopreserved at −80° C. until use. To the obtained tissues were added fifteen fold of Hepes buffer (50 mM, pH 7.4, 4° C.), and the mixture was homogenized by Teflon (trademark) homogenizer and centrifuged at 48,000×g (4° C.) for 15 minutes. To the resulting precipitate was added Hepes buffer (1 ml) to 30 mg by wet weight of tissues, and the mixture was suspended to give receptor membrane preparations.
To an assay tube were added 0.1 nM [^3H]-GR113808 {chemical name: [1-[2-(methylsulfonylamino)ethyl]-4-piperidinyl]methyl 1-methylindole-3-carboxylate}, receptor membrane preparations, and Hepes buffer (50 mM, pH 7.4, 4° C., 1 ml) containing test compounds or 30 μM serotonin; and the mixture was incubated at 37° C. for 30 minutes. On quenching the reaction, the mixture was rapidly filtered on whatman GF/B filter, which was presoaked in 0.1% polyethyleneimine for 1 hour, by using Brandel cell Harvester, and washed with ice-cooled 50 mM Tris-HCl (pH 7.7, 4 ml) three times. To the filter after filtration was added a liquid scintillator (Ecoscint), and then a radioactivity was determined by a liquid scintillation counter.
50% Inhibition concentrations (IC50) were determined from inhibition rates of test compounds to specific bindings which were obtained by subtracting nonspecific bindings from total binding amounts of [^3H]-GR113808.
as §1

[3] = biological target: T1, human 5-HT4b receptor; experiment: Test Example 4: Serotonin 4 (5-HT4) receptor agonist activity assay, cAMP HTRF in CHO cells (Table 100); assay type: cell-based; conditions: mean value
Summary of the method: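 CHO cells expressing human 5-HT4b receptor, serum-reduced for 1–2 h, were suspended in Hanks/HEPES pH 7.4 and exposed to compound for 15 min at 31° C. cAMP detected by HTRF (cryptate/d2, 1 h RT, 620/665 nm). EC50 and intrinsic activity relative to maximal 5-HT response (10^−11 to 10^−7 M) set at 100%.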

[4] = biological target: T2, 5-HT4 receptor; experiment: Test Example 3: Guinea pig 5-HT4 receptor binding assay, [3H]-GR113808, striatum membranes (Table 98); conditions: Guinea pig 5-HT4 receptor binding assay, [3H]-GR113808, striatum membranes; mean value of each group; read-out: IC50
Summary of the method: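 Striatal membranes from Slc-Hartley guinea pigs were incubated with 0.1 nM [3H]-GR113808 and test compounds in 50 mM Hepes pH 7.4 at 37° C for 30 min; nonspecific binding was defined with 30 μM serotonin. Bound radioactivity was collected by filtration, and IC50 was derived from inhibition of specific binding.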

T2 sequence (O70528 whole entry): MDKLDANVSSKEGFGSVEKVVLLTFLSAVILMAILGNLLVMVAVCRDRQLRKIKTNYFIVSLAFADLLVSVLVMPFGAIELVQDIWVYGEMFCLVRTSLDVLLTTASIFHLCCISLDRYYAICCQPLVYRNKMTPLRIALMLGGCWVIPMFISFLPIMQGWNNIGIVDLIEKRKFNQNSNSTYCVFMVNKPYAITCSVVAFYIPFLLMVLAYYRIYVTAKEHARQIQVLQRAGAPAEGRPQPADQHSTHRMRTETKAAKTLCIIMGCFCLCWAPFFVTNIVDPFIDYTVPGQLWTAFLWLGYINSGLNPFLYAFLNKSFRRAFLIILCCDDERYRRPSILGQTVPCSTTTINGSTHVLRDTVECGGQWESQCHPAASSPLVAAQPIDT
T1 sequence (Q13639 whole entry): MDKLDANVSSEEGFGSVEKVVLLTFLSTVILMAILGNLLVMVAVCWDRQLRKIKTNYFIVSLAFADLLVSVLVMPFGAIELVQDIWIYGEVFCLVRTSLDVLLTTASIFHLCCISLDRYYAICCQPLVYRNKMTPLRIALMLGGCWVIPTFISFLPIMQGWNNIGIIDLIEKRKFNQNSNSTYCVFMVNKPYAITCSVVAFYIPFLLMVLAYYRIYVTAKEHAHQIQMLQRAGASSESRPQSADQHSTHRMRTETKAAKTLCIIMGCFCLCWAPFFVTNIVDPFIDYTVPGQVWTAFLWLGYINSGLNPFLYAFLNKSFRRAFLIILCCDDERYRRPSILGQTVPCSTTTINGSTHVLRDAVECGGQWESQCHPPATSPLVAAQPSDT

Compound	Emax [1]	pEC50 [1]	pIC50 [2]	Emax ([3]; CHO, 0.25 h, intrinsic activity, maximal activity of 5-HT defined as 100%, read-out: IA (%))	pEC50 ([3]; concentration showing 50% of IA)	pIC50 [4]
COCCCN1CCC(c2nc(-n3nc(C(C)C)c4ccccc43)no2)CC1 [Example 85, 1-{5-[1-(3-methoxypropyl)piperidin-4-yl]-1,2,4-oxadiazol-3-yl}-3-(propan-2-yl)-1H-indazole]	125%	8.08	7.51	–	–	–
CCc1nn(-c2noc(C3CCN(CCCOC)CC3)n2)c2ccccc12 [Example 87, 3-ethyl-1-{5-[1-(3-methoxypropyl)piperidin-4-yl]-1,2,4-oxadiazol-3-yl}-1H-indazole trifluoroacetate]	80%	8.03	7.68	–	–	–
COCCCN1CCC(c2nc(-n3nc(C4CC4)c4ccccc43)no2)CC1 [Example 88, 3-cyclopropyl-1-{5-[1-(3-methoxypropyl)piperidin-4-yl]-1,2,4-oxadiazol-3-yl}-1H-indazole trifluoroacetate]	37%	7.79	7.47	–	–	–
CCc1nn(-c2noc(C3CCN(CCCOC)CC3)n2)c2cc(F)ccc12 [Example 92, 3-ethyl-6-fluoro-1-{5-[1-(3-methoxypropyl)piperidin-4-yl]-1,2,4-oxadiazol-3-yl}-1H-indazole]	92%	8.19	> 7.70	–	–	–
CCc1nn(-c2noc(C3CCN(CCCOC)CC3)n2)c2c(F)cccc12 [Example 95, 3-ethyl-7-fluoro-1-{5-[1-(3-methoxypropyl)piperidin-4-yl]-1,2,4-oxadiazol-3-yl}-1H-indazole]	43%	8.43	> 7.70	–	–	–
CC(C)CN1CCC(c2nc(-n3nc(C(C)C)c4ccccc43)no2)CC1 [Example 98, 1-{5-[1-(2-methylpropyl)piperidin-4-yl]-1,2,4-oxadiazol-3-yl}-3-(propan-2-yl)-1H-indazole trifluoroacetate]	110%	7.81	7.49	–	–	–
CCc1nn(-c2noc(C3CCN(C(C)CC)CC3)n2)c2ccccc12 (centres unmarked) [Example 101, 1-{5-[1-(butan-2-yl)piperidin-4-yl]-1,2,4-oxadiazol-3-yl}-3-ethyl-1H-indazole trifluoroacetate]	70%	8.05	> 7.70	–	–	–
CCC(C)N1CCC(c2nc(-n3nc(C4CC4)c4ccccc43)no2)CC1 (centres unmarked) [Example 102, 1-{5-[1-(butan-2-yl)piperidin-4-yl]-1,2,4-oxadiazol-3-yl}-3-cyclopropyl-1H-indazole trifluoroacetate]	26%	8.10	> 7.70	–	–	–
CCc1nn(-c2noc(C3CCN(CC(C)C)CC3)n2)c2ccccc12 [Example 103, 3-ethyl-1-(5-[1-(2-methylpropyl)piperidin-4-yl]-1,2,4-oxadiazol-3-yl}-1H-indazole]	59%	7.96	> 7.70	–	–	–
CCc1nn(-c2noc(C3CCN(CC4CC4)CC3)n2)c2ccccc12 [Example 112, 1-{5-[1-(cyclopropylmethyl)piperidin-4-yl]-1,2,4-oxadiazol-3-yl}-3-ethyl-1H-indazole trifluoroacetate]	73%	7.60	7.58	–	–	–
CCC(C)N1CCC(c2nc(-n3nc(C4CCC4)c4ccccc43)no2)CC1 (centres unmarked) [Example 114, 1-{5-[1-(butan-2-yl)piperidin-4-yl]-1,2,4-oxadiazol-3-yl}-3-cyclobutyl-1H-indazole trifluoroacetate]	68%	7.28	7.58	–	–	–
CC(C)CN1CCC(c2nc(-n3nc(C4CCC4)c4ccccc43)no2)CC1 [Example 115, 3-cyclobutyl-1-{5-[1-{2-methylpropyl)piperidin-4-yl]-1,2,4-oxadiazol-3-yl}-1H-indazole trifluoroacetate]	58%	6.82	7.40	–	–	–
CCCN1CCC(c2nc(-n3nc(C(C)C)c4ccccc43)no2)CC1 [Example 117, 3-(propan-2-yl)-1-[5-(1-propylpiperidin-4-yl)-1,2,4-oxadiazol-3-yl]-1H-indazole trifluoroacetate]	83%	7.53	7.59	–	–	–
CCc1nn(-c2noc(C3CCN(CCC4CCCO4)CC3)n2)c2cc(F)ccc12 (centres unmarked) [Example 131, 3-ethyl-6-fluoro-1-(5-{1-[2-(tetrahydrofuran-2-yl)ethyl]piperidin-4-yl}-1,2,4-oxadiazol-3-yl)-1H-indazole]	77%	8.03	> 7.70	–	–	–
CCc1nn(-c2noc(C3CCN(CC4CCCO4)CC3)n2)c2ccccc12 (centres unmarked) [Example 132, 3-ethyl-1-{5-[1-(tetrahydrofuran-2-ylmethyl)piperidin-4-yl]-1,2,4-oxadiazol-3-yl}-1H-indazole]	29%	7.83	> 7.70	–	–	–
CCc1nn(-c2noc(C3CCN(CC4CCOCC4)CC3)n2)c2cc(F)ccc12 [Example 134, 3-ethyl-6-fluoro-1-{5-[1-(tetrahydro-2H-pyran-4-ylmethyl)piperidin-4-yl]-1,2,4-oxadiazol-3-yl}-1H-indazole]	81%	7.92	7.62	–	–	–
CCc1nn(-c2noc(C3CCN(C4CCOC4)CC3)n2)c2cc(F)ccc12 (centres unmarked) [Example 138, 3-ethyl-6-fluoro-1-{5-[1-(tetrahydrofuran-3-yl)piperidin-4-yl]-1,2,4-oxadiazol-3-yl}-1H-indazole]	67%	7.65	> 7.70	–	–	–
CCc1nn(-c2noc(C3CCN(C(C)C)CC3)n2)c2cc(F)ccc12 [Example 143, 3-ethyl-6-fluoro-1-{5-[1-(propan-2-yl)piperidin-4-yl]-1,2,4-oxadiazol-3-yl}-1H-indazole]	81%	8.22	> 7.70	–	–	–
CCc1nn(-c2noc(C3CCN(CC4CCN(C(=O)OC)CC4)CC3)n2)c2cc(F)ccc12 [Example 171, methyl 4-({4-[3-(3-ethyl-6-fluoro-1H-indazol-1-yl)-1,2,4-oxadiazol-5-yl]piperidin-1-yl}methyl)piperidine-1-carboxylate]	51%	7.51	7.50	–	–	–
CCc1nn(-c2noc(C3CCN(CC4CN(C(=O)COC)C4)CC3)n2)c2c(F)cccc12 [Example 224, 1-[3-({4-[3-(3-ethyl-7-fluoro-1H-indazol-1-yl)-1,2,4-oxadiazol-5-yl]piperidin-1-yl}methyl)azetidin-1-yl]-2-methoxyethanone hydrochloride]	–	–	> 7.70	73.9%	8.17	> 7.70
CCN[C@H]1C[C@@H](c2nc(-n3nc(CC)c4ccc(F)cc43)no2)C1 [Example 278, cis-N-ethyl-3-[3-(3-ethyl-6-fluoro-1H-indazol-1-yl)-1,2,4-oxadiazol-5-yl]cyclobutanamine]	–	–	> 7.70	–	–	–
